# Key:
# [1] = tested on: MDA-MB231 D3H; assay: CellTiter-Glo viability/proliferation assay, MDA-MB231 breast cancer cells; type: cell-based; details: Homo sapiens, MDA-MB-231, 48 h; CellTiter-Glo, two-day treatment; read-out: Inhibition of MDA-MB231 D3H
# [2] = tested on: BXPC-3; assay: CellTiter-Glo cell proliferation, BxPC-3 pancreatic cancer cells; type: cell-based; details: Homo sapiens, read-out: IC50 category
# Description: Cell culture and treatment of pancreatic cancer cell lines: Pancreatic cancer cells lines BxPC-3, SW1990, and PANC-1 used in the experiments presented herein can be obtained from ATCC. The cells can be cultured and passaged in complete growth medium (RPMI-1640, Dulbecco's Modified Eagle Medium, or Leibovitz's L-15 medium) that has been supplemented with fetal bovine serum to a final concentration of 10%.
# Effects of Compound-5B on proliferation and Id-1 expression in pancreatic cell lines. Compound-5B was next tested for inhibition of cell viability/proliferation in the three pancreatic cancer cell lines and two primary patient-derived cancer cell lines. Compound-5B inhibited cell viability/proliferation of all the cancer cell lines (Table 2). The culturing condition for the pancreatic cell lines was similar to those used in the breast cancer lines, with the exception of the primary patient-derived pancreatic cancer cell lines (PANC9 and PANC13). […] Cell proliferation of pancreatic cells in the presence of drug was measured using the CellTiter-Glo luminescent Assay and IC50 values were calculated (Table 2). […]
# [3] = tested on: PANC13; assay: CellTiter-Glo cell proliferation, patient-derived PANC13 tumorspheres; type: cell-based; details: Homo sapiens, 72 h, three days treatment, read-out: IC50 category
# Description: Effects of Compound-5B on proliferation and Id-1 expression in pancreatic cell lines. Compound-5B was next tested for inhibition of cell viability/proliferation in the three pancreatic cancer cell lines and two primary patient-derived cancer cell lines. Compound-5B inhibited cell viability/proliferation of all the cancer cell lines (Table 2). The culturing condition for the pancreatic cell lines was similar to those used in the breast cancer lines, with the exception of the primary patient-derived pancreatic cancer cell lines (PANC9 and PANC13). For determining inhibition of cell proliferation in patient-derived pancreatic cancer cells were cultured in a T75 ultra low attachment flasks with DMEM/F12 media supplemented with B27, penicillin/streptomycin (10,000 u/mL), 50 µg/mL human epidermal growth factor (hEGF), 50 μg/mL human fibroblast growth factor, and 5 μg/mL heparin. Cells were plated in a 384-well plate and incubated for three days to promote the formation of tumorspheres. Cells were then treated with Compound-5B for three days. Cell proliferation of pancreatic cells in the presence of drug was measured using the CellTiter-Glo luminescent Assay and IC50 values were calculated (Table 2). The IC50 and corresponding 95% confidence limits (CL) were calculated using non-linear regression analysis.
# [4] = tested on: Kasumi −1 (leukemia); assay: Cell proliferation, Kasumi-1 leukemia cells; type: cell-based; details: Homo sapiens, read-out: IC50 category
# Description: (§1) Effects of Compound-5B on cell proliferation in additional cancer cells: To determine whether Compound-5B would have broad based anticancer activity, we study whether Compound-5B would be effective at inhibiting cell proliferation in a variety of cancers overexpressing Id-1. The assay conditions used were identical to those presented for breast and pancreatic cancers. Indeed, Compound-5B was potent at inhibiting cell proliferation in blood cancer (leukemia), glioblastoma, prostate, and ovarian cancer.
# [5] = tested on: U251 (glioblastoma); assay: Cell proliferation, U251 glioblastoma cells; type: cell-based; details: Homo sapiens, U-251, read-out: IC50 category
# Description: as §1
# [6] = tested on: DU145 (prostate); assay: Cell proliferation, DU145 prostate cancer cells; type: cell-based; details: Homo sapiens, DU-145, read-out: IC50 category
# Description: as §1
# [7] = tested on: Id-1; assay: Id-1 expression in primary patient-derived BRC25 cells; type: cell-based, human
# Description: (§2) Quantitative Western analysis: Cells are cultured and treated in 6-well dishes. After the cells are washed twice with cold PBS, lysis buffer is added. The cells are then lysed by freezing for 10 min at −70° C. and then thawing at ambient temperature. The cell lysate is collected and the protein content is determined by using Bradford reagent. Equal amounts of protein are heated at 90° C. in Laemmli sample buffer which also included β-mercaptoethanol. The samples are then loaded onto a precast SDS-PAGE gel (Bio-Rad Laboratories, Hercules, CA). After which, proteins are then electroblotted onto an Immobilon membrane (Millipore, Billerica, MA) overnight at 2-4° C. The membrane is then blocked for 1 hour with 5% nonfat dry milk which included TBS+Tween. The membranes are then incubated with an anti-Id-1 primary antibody, and then an appropriate secondary antibody was used. Blots are incubated for 45 min and then washed 4 times with TBS+Tween for 15 min each. […]
# Effects of Compound-5B on breast cancer cell proliferation, Id-1 expression and invasion in culture. […] The ability of the cells to migrate and invade in modified Boyden chambers was determined. The percentage relative invasion was calculated as the effect on treated cells/vehicle cells×100. […]
# [8] = tested on: Id-1; assay: Id-1 protein expression in 4T1 breast cancer cells; type: cell-based; details: mouse 4T1 breast cancer cells
# Description: as §2, with “C.” for “C. The membrane is then blocked for 1 hour with 5% nonfat dry milk which included TBS+Tween. The membranes are then incubated with an anti-Id-1 primary antibody, and then an appropriate secondary antibody was used. Blots are incubated for 45 min and then washed 4 times with TBS+Tween for 15 min each.”
# Antitumor activity of Compound-5B in vivo in breast cancer. […] We also determined whether it produced a similar effect in mouse 4T1 breast cancer cells. […] Lung metastasis % (total metastatic foci in treated/vehicle×100) was evaluated (FIG. 4B). […] Animals with established tumors (average volume of 100 mm^3) were randomized and treated once daily, 6 days a week, with i.p., injections of vehicle, or 1 mg/kg Compound-5B, tumors were measured once weekly by an operator blinded to the treatment groups. Changes in tumor volume (mm^3) were calculated as (length×width2)/2. *indicates statistically significant differences between vehicle and Compound-5B (p<0.05, Two-way ANOVA repeated measures, and Tukey's multiple comparisons test).
# [9] = target: T1, CYP2C9 (Homo sapiens, UniProt P11712); assay: CYP2C9 inhibition; type: in vitro ADME; details: 10 μM
# T1 construct: purchased Eurofins
# T1 sequence (P11712 whole entry): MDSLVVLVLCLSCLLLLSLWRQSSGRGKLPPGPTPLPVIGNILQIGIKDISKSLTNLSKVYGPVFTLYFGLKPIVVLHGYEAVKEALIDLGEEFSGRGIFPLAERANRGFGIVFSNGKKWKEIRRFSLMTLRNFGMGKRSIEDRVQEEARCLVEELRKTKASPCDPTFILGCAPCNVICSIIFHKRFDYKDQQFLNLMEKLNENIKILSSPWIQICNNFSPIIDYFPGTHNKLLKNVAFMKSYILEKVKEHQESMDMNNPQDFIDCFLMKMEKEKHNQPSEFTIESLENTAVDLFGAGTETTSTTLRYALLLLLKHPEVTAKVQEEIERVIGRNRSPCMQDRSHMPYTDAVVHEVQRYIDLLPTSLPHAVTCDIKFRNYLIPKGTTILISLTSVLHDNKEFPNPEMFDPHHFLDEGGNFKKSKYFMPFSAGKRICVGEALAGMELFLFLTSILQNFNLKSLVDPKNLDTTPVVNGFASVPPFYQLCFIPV
# Description: Evaluating ADME of Compound-5B in vitro. It is important to evaluate ADME first in culture as it allows for the selection of the best candidate for PK analysis in vivo. ADME analysis of Compound-5B was performed by Eurofins.
# [10] = IV pharmacokinetics; type: in vivo; details: 1 mpk
# [11] = target: T2, DRD1 (Dopamine receptor D1) (Homo sapiens, UniProt P21728); assay: SAFETY scan E/IC50 ELECT, DRD1; type: biochemical; details: read-out: inhibition against DRD1 (mild)
# T2 construct: purchased Eurofin's
# T2 sequence (P21728 whole entry): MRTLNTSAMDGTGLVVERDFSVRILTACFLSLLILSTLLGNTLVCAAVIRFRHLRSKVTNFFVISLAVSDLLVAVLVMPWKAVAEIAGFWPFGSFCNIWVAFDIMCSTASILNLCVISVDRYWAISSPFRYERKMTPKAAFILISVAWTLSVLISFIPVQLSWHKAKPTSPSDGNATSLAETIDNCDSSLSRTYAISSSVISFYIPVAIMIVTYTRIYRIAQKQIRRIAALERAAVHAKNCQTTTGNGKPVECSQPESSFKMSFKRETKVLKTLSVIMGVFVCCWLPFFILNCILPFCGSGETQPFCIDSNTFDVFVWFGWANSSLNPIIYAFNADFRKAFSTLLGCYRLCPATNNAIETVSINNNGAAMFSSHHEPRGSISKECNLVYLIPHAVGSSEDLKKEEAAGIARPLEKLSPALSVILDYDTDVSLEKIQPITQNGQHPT
smiles,measurement,setting,value
"CCCCCCC(C)(C)c1cc(O)c(C(=O)Nc2ccccc2)c(O)c1 [Compound 5B, 2,6-dihydroxy-4-(2-methyloctan-2-yl)-N-phenylbenzamide]",IC50,[1],< 0.5 µM
same,IC50,[2],1 to 5 µM
same,IC50,[3],< 0.5 µM
same,IC50,[4],< 0.5 µM
same,IC50,[5],< 0.5 µM
same,IC50,[6],< 0.5 µM
same,inhibition of Id-1 expression,[7],significant potency
same,Id-1 protein expression,[8],downregulation of Id-1 protein expression
same,inhibition of CYP2C9,[9],some inhibition
same,clearance,[10],low
same,exposure,[10],good
same,half-life,[10],acceptable
same,IC50,[11],0.64 to 0.75 µM

# From patent publication US12612358B2, “Resorcinol-based compounds and uses thereof” (priority 2020, dated 2026)
